Experimental data: patent US5486514A, “Carbamate derivatives” (Glaxo SpA, priority 1992, dated 1996)

Legend:
[1] = biological target: T1, CCK-B receptor (Cavia porcellus, UniProt H0VZC5); assay: CCK receptor binding, CCK-B receptor (guinea pig cortex assay); details: read-out: pKi CCK-B (converted)
T1 construct: CCK-B receptor (guinea pig cortex assay); from tissue; host or cells: guinea pig cortex
Experimental: (§1) The greater affinity of the compounds of the invention for the CCK-B receptor over the CCK-A receptor has also been established using the CCK receptor binding assays described by G Dal Fornos et al., J. Pharmcol. Exp & Ther. 261, 1056-1063, 1992.
(§2) The binding affinity of the compounds of the invention for the CCK-A receptor (Pancreas Assay) and CCK-B receptor (guinea pig cortex assay) was determined using the procedure of G Dal Forno et al J. Pharmacol. Exp & Ther. 261--1056-1063. The pKi values determined with representative compounds of invention were as follows: […]

[2] = biological target: CCK-A receptor; assay: CCK receptor binding, CCK-A receptor (Pancreas Assay)
Experimental: as §1, §2

T1 sequence (H0VZC5 entry or part of it): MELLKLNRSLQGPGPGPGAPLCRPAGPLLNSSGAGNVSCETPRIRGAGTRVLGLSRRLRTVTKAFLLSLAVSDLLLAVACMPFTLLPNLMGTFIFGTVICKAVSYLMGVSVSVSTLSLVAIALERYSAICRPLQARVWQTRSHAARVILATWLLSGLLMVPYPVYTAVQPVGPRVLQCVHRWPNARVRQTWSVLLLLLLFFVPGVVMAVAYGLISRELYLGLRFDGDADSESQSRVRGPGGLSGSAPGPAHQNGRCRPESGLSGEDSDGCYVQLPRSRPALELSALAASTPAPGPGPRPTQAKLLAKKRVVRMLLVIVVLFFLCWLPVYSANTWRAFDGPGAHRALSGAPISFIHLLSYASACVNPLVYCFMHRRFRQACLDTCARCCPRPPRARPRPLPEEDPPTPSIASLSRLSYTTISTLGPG

Row | Compound | Ki [1] | pKi CCK-A [2]
1 | CC(C)C(=O)CN1C(=O)C(NC(=O)Oc2cccc(N(C)C)c2)C(=O)N(c2ccccc2)c2ccccc21 (stereo not drawn) [Example 4, 3-[3-(N,N-dimethylamino)phenyloxycarbonylamino-2,4-dioxo-1-(3-methyl-2-oxo)but-1-yl)-5-phenyl-2,3,4,5-tetrahydro-1H-1,5-benzodiazepine] | 3.09 nM | 6.25
2 | CC(C)CCN1C(=O)C(NC(=O)Oc2ccccc2)C(=O)N(c2ccccc2)c2ccccc21 (racemic) [Example 1, 2,4-Dioxo-1-(3-methylbut-1-yl)-5-phenyl-3-(phenyloxycarbonylamino)-2,3,4,5-tetrahydro-1H-1,5-benzodiazepine] | 21.4 nM | 5.29
3 | COc1cccc(OC(=O)NC2C(=O)N(CCC(C)C)c3cc(Cl)c(Cl)cc3N(c3ccccc3)C2=O)c1 (racemic) [Example 25, 7,8-Dichloro-2,4-dioxo-3-(3-methoxyphenyloxycarbonyl)amino-1-(3-methyl-1-butyl)-5-phenyl-2,3,4,5-tetrahydro-1H-1,5-benzodiazepine] | 6.31 nM | 5.37
4 | O=C(NC1C(=O)N(CCC2CCCC2)c2ccccc2N(c2ccccc2F)C1=O)Oc1ccccc1 (stereo not drawn) [Example 13] | 4.57 nM | 6.25
5 | CN(C)c1cccc(OC(=O)NC2C(=O)N(CCC(C)(C)C)c3ccccc3N(c3ccccc3F)C2=O)c1 (racemic) [Example 9, 3-[3-(N,N-dimethylamino)phenyloxycarbonylamino]-1-(3,3-dimethylbut-1-yl)-2,4-dioxo-5-(2-fluorophenyl)-2,3,4,5-tetrahydro-1H-1,5-benzodiazepine] | 1.02 nM | 6.75
6 | CC(C)CCN1C(=O)C(NC(=O)Oc2cccc(N(C)C)c2)C(=O)N(c2ccccc2)c2ccccc21 (stereo not drawn) [Example 3] | 3.16 nM | 6.24
7 | CC(C)CCN1C(=O)C(NC(=O)Oc2cccc(N(C)C)c2)C(=O)N(c2ccccc2)c2ccc(Cl)cc21 (racemic) [Example 24, 8-Chloro-3-[3-(N,N-dimethylamino)phenyloxycarbonylamino]-2,4-dioxo-1-(3-methylbut-1-yl)-5-phenyl-2,3,4,5-tetrahydro-1H-1,5-benzodiazepine] | 3.39 nM | 5.89
8 | CN(C)c1cccc(OC(=O)NC2C(=O)N(CC34CC5CC(CC(C5)C3)C4)c3ccccc3N(c3ccccc3)C2=O)c1 (stereo not drawn) [Example 20] | 12.3 nM | 5.48
9 | CC(C)(C)CCN1C(=O)C(NC(=O)Oc2ccccc2)C(=O)N(c2ccccc2F)c2ccccc21 (stereo not drawn) [Example 7] | 3.89 nM | 6.43
10 | CC(C)CCN1C(=O)C(NC(=O)Oc2cccc(N(C)C)c2)C(=O)N(c2ccccc2)c2cc(Cl)c(Cl)cc21 (racemic) [Example 12, 7,8-Dichloro-3[3-(N,N-dimethylamino)phenyloxycarbonylamino]-2,4-dioxo-1-(3-methylbut-1-yl)-5-phenyl-2,3,4,5-tetrahydro-1H-1,5-benzodiazepine] | 7.41 nM | 5.49
11 | CC(C)CCN1C(=O)C(NC(=O)Oc2cccc(N(C)C)c2)C(=O)N(c2ccccc2F)c2ccccc21 (racemic) [Example 8, 3-[3-(N,N-dimethylamino)phenyloxycarbonylamino]-2,4-dioxo-5-(2-fluorophenyl)-1-(3-methylbut-1-yl)-2,3,4,5-tetrahydro-1H-1,5-benzodiazepine] | 1.58 nM | 6.38
12 | COc1cccc(OC(=O)NC2C(=O)N(CCC(C)C)c3cc(Cl)ccc3N(c3ccccc3)C2=O)c1 (racemic) [Example 38, 8-Chloro-2,4-dioxo-3-(3-methoxyphenyloxycarbonyl)amino-1-(3-methyl-1-butyl)-5-phenyl-2,3,4,5-tetrahydro-1H-1,5-benzodiazepine] | 20 nM | 5.35
